Assay results: patent US8338619B2, “Crystalline form of the zoledronic acid, a process to obtain it and the pharmaceutical composition comprising it” (Gador S.A., priority 2005, dated 2012)

Test: TGA Kinetics Analysis of dehydration (constant heating rate thermogravimetry, ASTM E1641)
Format: physicochemical
Description: In this Example, thermogravimetric analysis (TGA) is used as an analytical methodology to quantify the thermal stability parameters of solid chemicals. The data generated from these measurements is analyzed to obtain Arrhenius kinetic parameters such us activation energy (Ea) and preexponential factor. The activation energies of two different hydrates—zoledronic acid monohydrate and trihydrate—is obtained to analyze the dehydration reaction of these two forms to anhydrous form so that the their relative solid-state thermal stability can be ranked based on their activation energy values.
Thermogravimetric analysis (TGA) is a thermal analysis technique which measures the amount and rate of change on the weight of a material as a function of temperature or time in a controlled atmosphere. TGA measurements are used primarily to determinate the composition of materials and to predict their thermal stability up to elevate temperatures. However, with proper experimental procedures, additional information about the kinetics of decomposition and in-use lifetime predictions can be obtained.
TGA Kinetics Analysis method covers determination of the kinetic parameters, Arrhenius activation energy preexponential factor by thermogravimetry, based on the assumption that the decomposition to obeys first-order kinetics.
This program utilizes data gathered by running a sample at various heating rates. […]

| SMILES | solid-state kinetic thermal stability (relative ranking from activation energy) (trihydrate vs monohydrate) | Activation energy (dehydration to anhydrous form) (at 50.0 percent of conversion level, TGA at 5, 10 and 20° C./min from 25 to 200° C., dry nitrogen purge, Monohydrate) |
| --- | --- | --- |
| O=P(O)(O)C(O)(Cn1ccnc1)P(=O)(O)O [Zoledronic acid trihydrate, Zoledronic Acid Trihydrate] | greater than monohydrate form |  |
| O=P(O)(O)C(O)(Cn1ccnc1)P(=O)(O)O [Zoledronic acid monohydrate, Zoledronic Acid Monohydrate] |  | 36.33 kcal/mol |
